From article PMC11004395 (Saudi Pharmaceutical Journal : SPJ, 2024)

Target: bovine xanthine oxidase (BXO) (Bos taurus, UniProt P80457)
Test: XO inhibitory assay, double enzyme detection
Assay type: biochemical
Details: read-out: IC50 of moderately active compounds, moderate activities (Fig. 6)

bovine xanthine oxidase (BXO), sequence (P80457 whole entry): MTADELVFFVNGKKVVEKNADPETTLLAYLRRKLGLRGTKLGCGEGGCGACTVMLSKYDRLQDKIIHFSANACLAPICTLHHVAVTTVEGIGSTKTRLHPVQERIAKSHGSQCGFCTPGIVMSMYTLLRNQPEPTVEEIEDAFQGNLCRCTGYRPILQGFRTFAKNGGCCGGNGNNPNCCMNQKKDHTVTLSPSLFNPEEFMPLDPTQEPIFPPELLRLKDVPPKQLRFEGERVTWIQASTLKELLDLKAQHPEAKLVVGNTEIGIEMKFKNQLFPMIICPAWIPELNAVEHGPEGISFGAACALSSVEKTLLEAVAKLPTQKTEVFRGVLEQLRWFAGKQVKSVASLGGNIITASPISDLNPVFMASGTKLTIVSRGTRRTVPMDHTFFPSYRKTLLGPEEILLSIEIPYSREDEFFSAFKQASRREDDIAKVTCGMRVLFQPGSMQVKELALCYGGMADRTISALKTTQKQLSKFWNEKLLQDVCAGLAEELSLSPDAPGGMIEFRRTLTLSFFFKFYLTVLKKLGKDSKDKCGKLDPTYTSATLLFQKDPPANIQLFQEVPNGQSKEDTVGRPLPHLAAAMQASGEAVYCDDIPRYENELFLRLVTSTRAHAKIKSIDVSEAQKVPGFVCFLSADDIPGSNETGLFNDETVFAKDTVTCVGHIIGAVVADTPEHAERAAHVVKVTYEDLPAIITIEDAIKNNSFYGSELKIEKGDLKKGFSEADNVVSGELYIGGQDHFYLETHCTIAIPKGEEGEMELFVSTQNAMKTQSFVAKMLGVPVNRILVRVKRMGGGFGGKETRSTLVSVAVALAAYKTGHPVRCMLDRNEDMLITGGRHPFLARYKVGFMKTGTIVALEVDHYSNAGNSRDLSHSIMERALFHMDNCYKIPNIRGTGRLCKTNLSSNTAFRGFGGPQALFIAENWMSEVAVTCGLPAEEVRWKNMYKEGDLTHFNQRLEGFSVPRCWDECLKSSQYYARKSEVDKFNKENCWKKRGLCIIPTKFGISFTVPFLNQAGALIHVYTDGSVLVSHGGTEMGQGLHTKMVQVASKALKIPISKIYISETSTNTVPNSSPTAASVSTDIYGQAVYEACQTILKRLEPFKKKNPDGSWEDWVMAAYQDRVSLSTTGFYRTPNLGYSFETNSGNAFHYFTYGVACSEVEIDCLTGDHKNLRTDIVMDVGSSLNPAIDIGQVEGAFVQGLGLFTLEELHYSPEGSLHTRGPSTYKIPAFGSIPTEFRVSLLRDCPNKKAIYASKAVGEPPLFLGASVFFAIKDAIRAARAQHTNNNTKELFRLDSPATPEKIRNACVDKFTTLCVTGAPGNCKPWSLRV

O=[N+]([O-])c1ccc(C=Nn2c(Cn3nnc4ccccc43)n[nH]c2=S)cc1 [Compound 8, 3-((1H-Benzo[d][1,2,3]triazol-1-yl)methyl)-4-((4-nitrobenzylidene)amino)-1H-1,2,4-triazole-5(4H)-thione]
IC50: ≤ 263 µM
